Experimental findings from ChEMBL document CHEMBL1201862, “PubChem BioAssay data set” (2004) are described below.

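Grown in 96-well plates, cells were treated for 48 hours with each compound at five concentrations. Insufficient inhibition: endpoint recorded as highest concentration tested. The concentration for 50% growth inhibition is given as GI50.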 The source made the active and inactive calls. Rule as the data show it: active = GI50 up to about 1.1 µM and inactive = higher.

Test systems include BT-549; Hs-578T; XF498; M19-MEL; HOP-18; SNB-78; DMS-114; LXFL 529.
What all share (test): NCI anticancer screen, dose series, 48 h

Consider `Cc1ccnc2nc(-c3cccc(Cl)c3)cc(O)c12`, for which the GI50 in the test with BT-549 was 1.65 µM (inactive); in the test with Hs-578T, 0.44 µM (active).

With `CCCCCCOc1ccc(NC2=C(Cl)C(=O)c3cccnc3C2=O)cc1`, the GI50 with BT-549 was 3.22 µM (inactive); in the test with Hs-578T, 8.02 µM (inactive).

On to `c1ccc(CCN2CCOCC2)nc1`, for which the GI50 in the test on BT-549 and in the test on Hs-578T was > 100 µM (inactive) throughout.

Consider `Cn1c(=O)cc(NCCc2ccccc2)[nH]c1=O`, for which the GI50 with BT-549 is 47.8 µM (inactive); with Hs-578T, 14.1 µM (inactive).

On to `CCCC1c2c(ccc3ccccc23)Oc2ccc3ccccc3c21`, for which the GI50 in the test with BT-549 and with Hs-578T was > 100 µM (inactive) throughout.

As for `Cc1nc(N)nc(S)c1CCCNc1ccccc1`, the figures for the GI50 with BT-549 and in the test with Hs-578T were 70 µM (inactive) and > 100 µM (inactive), respectively.

For `COc1cc2c3c4[n+](cc2c(OC)c1OC)CCC4CCC3` (stereo unspecified), the GI50 in the test on BT-549 and in the test on Hs-578T was > 100 µM (inactive) throughout.

As for `COc1ccc2c(c1)c1c(n2CCN(C)C)-c2cccc(OC)c2CC1`, the GI50 in the test with BT-549 is 20 µM (inactive); in the test with Hs-578T, 16.3 µM (inactive).

In the case of `OCc1c2c(cc3c1CC1(C3)Cc3cc4c(c(CO)c3C1)CCC4)CCC2`, in the test with Hs-578T, the GI50 was 17.5 µM (inactive).

In the case of `CN1C(=O)C(CC=O)(C(C)(C)C)c2ccccc21` (stereo unspecified), the GI50 with Hs-578T is 56.6 µM (inactive).

For `CC(C)(C)c1cc2c(c(C(C)(C)C)c1O)CC(=O)O2`, in the test with Hs-578T, the GI50 was 26.4 µM (inactive).

For the compound `COc1c(C)c(C/C=C(\C)CCCC(C)CCCC(C)CCCC(C)C)c(OC)c2ccccc12` (stereo unspecified), the GI50 in the test with BT-549 and in the test on Hs-578T was > 100 µM (inactive) each time.

In the case of `Cc1ccc(S(=O)(=O)NC(=O)C2=C3SCCN3C(=O)N(S(=O)(=O)c3ccc(C)cc3)C2c2ccccc2)cc1` (stereo unspecified), the GI50 in the test on BT-549 was > 100 µM (inactive); in the test on Hs-578T, 48.4 µM (inactive).

Consider `Nc1ccc2c(SCCSc3c4ccccc4nc4cc(N)ccc34)c3ccccc3nc2c1`, for which the GI50 in the test on BT-549 and with Hs-578T was > 100 µM (inactive) each time.

Consider `COC(=O)c1cc(=O)nc2sc3cccc(C)c3n12`, for which the GI50 in the test with BT-549 is 55.6 µM (inactive); with Hs-578T it was 56.2 µM (inactive).

Turning to `O=C(NCC(O)COc1ccccc1)c1ccccc1O` (stereo unspecified), in the test with BT-549, the GI50 was 27.7 µM (inactive).

Turning to `c1ccc(C2SCC3=Nc4ccccc4CN32)cc1` (stereo unspecified), the GI50 was > 100 µM (inactive) with BT-549 and 73.8 µM (inactive) in the test on Hs-578T.

For the compound `c1cncc(CSc2nc3ccccc3nc2-c2cccs2)c1`, the GI50 in the test with XF498 is 35.3 µM (inactive); in the test with M19-MEL it was > 100 µM (inactive); with HOP-18 it was > 100 µM (inactive); in the test on SNB-78, > 100 µM (inactive).

With `COc1ccc(-c2nc(-c3cnccn3)n(C3OC(CO)C(O)C(O)C3O)n2)cc1` (stereo unspecified), the GI50 in the test with BT-549 is > 100 µM (inactive).

Consider `Cc1cc(O)nc(NN2C(Cl)C(=O)C2c2ccc(O)cc2)n1` (stereo unspecified), for which the GI50 in the test with BT-549 was 9.1 µM (inactive); in the test on Hs-578T, 14.5 µM (inactive); with DMS-114, 7.35 µM (inactive); with M19-MEL it was 10.5 µM (inactive); in the test on HOP-18 it was 14.6 µM (inactive); in the test on LXFL 529 it was 10.3 µM (inactive). For the same compound, the GI50 with SNB-78 is 5.87 µM (inactive).

As for `O=[N+]([O-])C1CC/C(=N/O)c2nonc21` (stereo unspecified), the GI50 in the test with BT-549 and with Hs-578T was > 10 µM (inactive) each time.

With `c1ccc(/C(=N/Nc2cnccn2)c2ncccn2)cc1`, the figures for the GI50 in the test on BT-549 and with Hs-578T were > 100 µM (inactive) and 23.1 µM (inactive), respectively.

As to `COC(=O)C1=CCC[C@H]2[C@@]1(COC(C)=O)CC[C@@H](C)[C@]2(C)CC(=O)c1ccoc1`, the GI50 in the test with BT-549 is 10.9 µM (inactive); in the test on Hs-578T, 13.4 µM (inactive).

For `COc1ccccc1N/C(=C\C(=O)C(=O)NC12CC3CC(CC(C3)C1)C2)c1ccccc1`, the GI50 in the test on Hs-578T was > 10 µM (inactive).

Turning to `N#CC(C(=O)C(=O)Nc1ccccc1)c1ccccc1` (stereo unspecified), the GI50 in the test with XF498, in the test with M19-MEL and in the test on LXFL 529 was > 100 µM (inactive) each time.

With `N#Cc1cc(Sc2ccc(N)c(C#N)c2)ccc1N`, the figures for the GI50 in the test with BT-549 and with Hs-578T were 19 µM (inactive) and 12.6 µM (inactive), respectively.

`CCCCn1c2c(n(CCCC)c1=S)-c1c(n(CCCC)c(=S)n1CCCC)SSc1c(n(CCCC)c(=S)n1CCCC)-c1c(n(CCCC)c(=S)n1CCCC)SSc1c(n(CCCC)c(=S)n1CCCC)-c1c(n(CCCC)c(=S)n1CCCC)SS2`: the GI50 was 3.55 µM (inactive) in the test on BT-549 and 3.25 µM (inactive) in the test on Hs-578T.

As to `Cc1ccc2nc(/C=N/c3ccc(Cl)cc3)cc(C)c2c1`, the figures for the GI50 with BT-549 and in the test with Hs-578T were 13.9 µM (inactive) and 15.8 µM (inactive), respectively.

With `CO/N=C(/C(=O)Nc1c[n+](CC(=O)[O-])cs1)c1csc(N)n1`, the GI50 with XF498, in the test on HOP-18, in the test with LXFL 529 and in the test on SNB-78 was > 100 µM (inactive) each time.

Consider `Cc1cc2c(cc1C)C(=O)C1(C2)Cc2c(ccc(C)c2C)C1=O` (stereo unspecified), for which the GI50 in the test on BT-549 is > 100 µM (inactive); with Hs-578T it was 42.5 µM (inactive).

`C=C(C)[C@@H](C(=O)OC)N1C(=O)c2ccccc2C1=O`: the GI50 with BT-549 and in the test with Hs-578T was > 100 µM (inactive) throughout.

Take `COc1ccc(NC(=O)CCc2cc(-c3ccc(O)c(OC)c3)nc(NC#N)n2)cc1`: the GI50 in the test on DMS-114, in the test on M19-MEL, in the test with HOP-18, in the test with LXFL 529 and in the test on SNB-78 was > 100 µM (inactive) in each case.

In the case of `COc1cc2c(c(OC3OC(CO)C(O)C(O)C3O)c1)C(=O)CC(c1ccc(O)cc1)O2` (stereo unspecified), the GI50 in the test on BT-549 and with Hs-578T was > 100 µM (inactive) throughout.

For `CCC1C(c2cc(OC)c(OC)c(OC)c2)c2cc3c(cc2OC1N1CCOCC1)OCO3` (stereo unspecified), the figures for the GI50 with BT-549 and in the test with Hs-578T were 2.99 µM (inactive) and 3.02 µM (inactive), respectively.

Turning to `OCCNCO`, the GI50 in the test on XF498, in the test on M19-MEL, in the test on LXFL 529 and in the test with SNB-78 was > 100 µM (inactive) in each case.

As to `CC(C)=CC1C(C(=O)Oc2ccccc2C(C)C)C1(C)C` (stereo unspecified), the values for the GI50 with BT-549 and in the test with Hs-578T were 30 µM (inactive) and 39.9 µM (inactive), respectively.

For `CS(=O)(=O)C1(Br)S(=O)(=O)OCCOS1(=O)=O`, the GI50 with XF498, with DMS-114, with M19-MEL, in the test on LXFL 529 and in the test on SNB-78 was > 100 µM (inactive) in each case.

Take `Cc1ccc(NC(=S)C#N)cc1Cl`: the GI50 in the test with BT-549 is 53 µM (inactive).

On to `CSc1nc2nccnc2c(=O)[nH]1`, for which the GI50 with XF498, in the test on DMS-114, in the test with M19-MEL, with HOP-18 and in the test with LXFL 529 was > 100 µM (inactive) throughout.

Consider `COC(=O)c1c(O)ccc2c1c1c(n2Cc2ccc(OC)cc2)C(=O)c2ccccc2C1`, for which the GI50 with BT-549 and in the test on Hs-578T was > 100 µM (inactive) throughout.

Regarding `CC(C)(C)[Si](C)(C)OCC1OC(n2cnc3c(N)ncnc32)C(O)C1O` (stereo unspecified), the GI50 in the test on BT-549 is 69.5 µM (inactive); in the test with Hs-578T, 44.5 µM (inactive).

With `COc1ccc(-c2oc(/C=N/c3ccccc3)c([N+](=O)[O-])c2-c2ccc(OC)c(OC)c2)cc1OC`, the GI50 in the test with XF498, with DMS-114, in the test with M19-MEL, in the test with LXFL 529 and in the test on SNB-78 was > 100 µM (inactive) each time.

Take `N#Cc1ccc2oc3ccc(C#N)cc3c(=O)c2c1`: the GI50 in the test with BT-549 is 25.5 µM (inactive).

For `COc1cc(CSc2ccc(O)cc2)cc(OC)c1OC`, the GI50 was 16.4 µM (inactive) in the test on BT-549 and 41.3 µM (inactive) in the test with Hs-578T.

In the case of `NNc1nnc(CCCCCCCCc2nnc(NN)n2N)n1N`, the GI50 with BT-549 was 26.1 µM (inactive).

In the case of `CC(C)(/N=N/C(C)(C)C(=N)N)C(=N)N`, the GI50 with BT-549 and in the test with Hs-578T was > 100 µM (inactive) each time.

In the case of `CCOC(=O)/C=C(/C(=O)OCC)n1cc(C)c(=O)[nH]c1=O`, the results for the GI50 with BT-549 and with Hs-578T were 10.3 µM (inactive) and 17.7 µM (inactive), respectively.

Turning to `CCOC(=O)C1=C(Nc2cccc(OC)c2)OCC1=O`, the GI50 with Hs-578T was > 100 µM (inactive).

On to `CC1=NN(c2ccccc2)C(=O)C1C(=O)C(=O)Nc1ccc(C)cc1C` (stereo unspecified), for which the GI50 with Hs-578T, in the test on DMS-114, in the test with M19-MEL, in the test with HOP-18, in the test on LXFL 529 and in the test on SNB-78 was > 100 µM (inactive) in each case.

On to `CC(NCc1c(O)ccc2c(-c3ccccc3)cc(=O)oc12)C(=O)O` (stereo unspecified), for which the GI50 in the test with Hs-578T was > 100 µM (inactive).

Regarding `Cc1ccc(NC(=O)c2ccc(OP(=O)(O)Nc3ccc(C)cc3)cc2)cc1`, the GI50 is > 100 µM (inactive) in the test with BT-549 and 92.7 µM (inactive) in the test with Hs-578T.

With `CC1CCC2(NC1)OC1CC3[C@@H]4CC=C5C=CCC[C@]5(C)C4CC[C@]3(C)C1C2C` (stereo partly specified), the GI50 in the test on XF498 was 17.6 µM (inactive); in the test with DMS-114, 20.8 µM (inactive); in the test on M19-MEL it was 33.9 µM (inactive); in the test on HOP-18, 32.2 µM (inactive); in the test with SNB-78, 39.4 µM (inactive).

With `O=[N+]([O-])C1C2C=CC(C2)[C@H]1c1ccco1` (stereo partly specified), the GI50 with XF498, in the test on DMS-114, in the test with M19-MEL, in the test with LXFL 529 and in the test with SNB-78 was > 100 µM (inactive) each time.

Take `CC(O)c1cc2c(s1)C(=O)c1scc(C(C)O)c1C2=O` (stereo unspecified): the GI50 in the test on BT-549 was 0.211 µM (active); with Hs-578T it was 0.394 µM (active).

On to `Cc1cc(C)c2c(O)cc(-c3ccc4ccccc4c3)nc2n1`, for which the GI50 was 40.5 µM (inactive) in the test on BT-549 and 16.4 µM (inactive) with Hs-578T.

With `O=C(Nc1ccn(C2CCC(COC(c3ccccc3)(c3ccccc3)c3ccccc3)O2)c(=O)n1)c1ccccc1` (stereo unspecified), the GI50 with Hs-578T is 3.54 µM (inactive).

On to `CCCCCNC(=O)c1cc2cc(CCl)ccc2oc1=O`, for which the GI50 was 6.49 µM (inactive) with BT-549 and 6.37 µM (inactive) with Hs-578T.

In the case of `COc1ccc2[nH]c(Cl)c(/C=C3/C(=O)N(c4ccccc4)c4ccccc43)c2c1`, the figures for the GI50 with BT-549 and in the test with Hs-578T were 2.67 µM (inactive) and 4.74 µM (inactive), respectively.

Take `NC(=O)CC[C@H]1C(=O)N=C(N)N1C(=O)OCc1ccccc1`: the GI50 with BT-549 and in the test on Hs-578T was > 100 µM (inactive) throughout.

Take `C=C1CC[C@H]2C(C)=CC[C@H]3C(=C)C(=O)O[C@@H]3[C@@H]12` [EREMANTHIN]: the GI50 in the test with BT-549 was > 100 µM (inactive).
